Where a name gives a salt, the structure may show the parent alone.
Target: recombinant human KIT tyrosine kinase protein (Homo sapiens (Human), UniProt P10721)
Experiment: KIT tyrosine kinase assay (ADP-Glo)
Type: biochemical
Experimental: An in vitro assay utilizing the recombinant human KIT tyrosine kinase protein was developed to measure compound inhibition of KIT. KIT tyrosine kinase activity was measured by the ADP-Glo Kinase Assay system with poly […]) peptide substrate. Kinase Assay was performed in white 384-well plates and the luminescence was measured by Victor X5 Multilabel Counter (Perkin Elmer). Recombinant intracellular domain of human KIT protein was purchased from Carna Biosciences (Kobe, Japan). Poly […]) peptide was purchased from Sigma-Aldrich (St. Louis, Missouri, USA). ADP-Glo Kinase Assay reagent was purchased from Promega (Madison, Wisconsin, USA). Each test compound was dissolved in 100% DMSO to prepare 10 mM stock solutions. […] After the preincubation, 3 μL of substrate/ATP mixture was added and incubated for 1 hour at room temperature. The tyrosine phosphorylation by KIT kinase was quantified by ADP-Glo kinase assay kit following the manufacturer's protocol. Briefly, the phosphorylation reaction was terminated by adding 10 μL ADP-Glo reagent and incubated for 60 minutes at room temperature. 20 μL of Kinase Detection Reagent was added to each well and luminescence was measured by plate reader. […] Half maximal inhibitory concentration (IC50) was calculated by a Four […] Logistic Regression model using GraphPad Prism (GraphPad Software). The value without recombinant KIT protein and without test compound was used as a negative control (assay background).

recombinant human KIT tyrosine kinase protein, sequence (P10721 546-976): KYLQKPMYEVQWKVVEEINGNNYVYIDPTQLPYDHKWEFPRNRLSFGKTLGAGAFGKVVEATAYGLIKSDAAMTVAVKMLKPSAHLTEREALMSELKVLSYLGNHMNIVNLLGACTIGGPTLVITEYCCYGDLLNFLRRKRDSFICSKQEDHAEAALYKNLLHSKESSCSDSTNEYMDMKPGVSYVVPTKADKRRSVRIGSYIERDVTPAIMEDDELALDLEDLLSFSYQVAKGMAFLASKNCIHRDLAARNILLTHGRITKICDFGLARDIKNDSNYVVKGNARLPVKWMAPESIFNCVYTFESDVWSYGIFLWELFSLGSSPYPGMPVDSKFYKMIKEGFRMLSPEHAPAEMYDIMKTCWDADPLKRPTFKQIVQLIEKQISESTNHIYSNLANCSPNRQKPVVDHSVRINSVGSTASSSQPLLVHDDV

| Compound | IC50 (Table 98) | other results |
| --- | --- | --- |
| CC(NC(=O)c1ccc2c(c1)[nH]c(=O)n2C)c1ccc(N(C)C(C)C)nc1 (single isomer, unassigned) [130 Peak 2] |  | IC50 (Table 99): 1.03 µM |
| Cn1c(=O)[nH]c2cc(C(=O)NCc3cnc(Oc4ccc(F)cc4)s3)ccc21 [Compound 5, N-((2-(4-Fluorophenoxy)thiazol-5-yl)methyl)-1-methyl-2-oxo-2,3-dihydro-1H-benz imidazole-5-carboxamide] | 3.2 µM |  |
| C[C@H](NC(=O)c1ccc2c(c1)[nH]c(=O)n2C)c1ccc(Oc2ccc(F)c(F)c2)nc1 [Compound 7, (S)—N-(1-(6-(3,4-Difluorophenoxy)pyridin-3-yl)ethyl)-1-methyl-2-oxo-2,3-dihydro-1H-benzimidazole-5-carboxamide] | 0.04 µM |  |
| O=C(NCc1ccc(Nc2ccc(F)cc2)nc1)c1ccc2[nH]c(=O)[nH]c2c1 [Compound 8, N-((6-((4-Fluorophenyl)amino)pyridin-3-yl)methyl)-2-oxo-2,3-dihydro-1H-benzimidazole-5-carboxamide trifluoroacetate] | 0.19 µM |  |
| C[C@H](NC(=O)c1ccc2c(c1)[nH]c(=O)n2C)c1ccc(N(C)c2ccc(F)cc2)nc1 [Compound 13, (S)—N-(1-(6-((4-Fluorophenyl)(methyl)amino)pyridin-3-yl)ethyl)-1-methyl-2-oxo-2,3-d ihydro-1H-benzimidazole-5-carboxamide] | 0.04 µM |  |
| Cn1c(=O)[nH]c2cc(C(=O)NCc3ccc(C(F)c4ccc(F)cc4)nc3)ccc21 (stereo not shown) [Compound 16, N-((6-(Fluoro(4-fluorophenyl)methyl)pyridin-3-yl)methyl)-1-methyl-2-oxo-2,3-dihydro-1H-benzimidazole-5-carboxamide] | 0.061 µM |  |
| Cn1c(=O)[nH]c2cc(C(=O)NCc3cnc4c(c3)ncn4-c3c(F)cccc3F)ccc21 [Compound 21, N-((3-(2,6-Difluorophenyl)-3H-imidazo[4,5-b]pyridin-6-yl)methyl)-1-methyl-2-oxo-2,3-dihydro-1H-benzimidazole-5-carboxamide trifluoroacetate] | 0.66 µM |  |
| Cn1c(=O)[nH]c2cc(C(=O)NCc3ccc(Oc4cccc(C#N)c4)nc3)ccc21 [Compound 22, N-((6-(3-Cyanophenoxy)pyridin-3-yl)methyl)-1-methyl-2-oxo-2,3-dihydro-1H-benzimid azole-5-carboxamide trifluoroacetate] | 0.46 µM |  |
| Cn1c(=O)[nH]c2cc(C(=O)NCc3ccc(N(c4ccc(F)cc4)C4CC4)nc3)ccc21 [Compound 23, N-((6-(Cyclopropyl(4-fluorophenyl)amino)pyridin-3-yl)methyl)-1-methyl-2-oxo-2,3-dihy dro-1H-benzimidazole-5-carboxamide] | 0.078 µM |  |
| CN1CCC(N(C)c2ccc(CNC(=O)c3ccc4c(c3)[nH]c(=O)n4C)cn2)CC1 [Compound 24, 1-Methyl-N-((6-(methyl(1-methylpiperidin-4-yl)amino)pyridin-3-yl)methyl)-2-oxo-2,3-dihydro-1H-benzimidazole-5-carboxamide] | 0.34 µM |  |
| Cn1c(=O)[nH]c2cc(C(=O)NCc3cnc(NC4CCC(F)(F)CC4)s3)ccc21 [Compound 25, N-((2-((4,4-Difluorocyclohexyl)amino)thiazol-5-yl)methyl)-1-methyl-2-oxo-2,3-dihydro-1H-benzimidazole-5-carboxamide] | 0.36 µM |  |
| CN1CCN(Cc2cccc(N(C)c3ccc(CNC(=O)c4ccc5c(c4)[nH]c(=O)n5C)cn3)c2)CC1 [Compound 26, 1-Methyl-N-((6-(methyl(3-((4-methylpiperazin-1-yl)methyl)phenyl)amino)pyridin-3-yl)methyl)-2-oxo-2,3-dihydro-1H-benzimidazole-5-carboxamide trifluoroacetate] | 0.27 µM |  |
| CC(NC(=O)c1ccc2c(c1)[nH]c(=O)n2C)c1ccc(Oc2ccc(F)cc2F)nc1 (stereo not shown) [Compound 27, N-(1-(6-(2,4-Difluorophenoxy)pyridin-3-yl)ethyl)-1-methyl-2-oxo-2,3-dihydro-1H-benzi midazole-5-carboxamide] | 0.074 µM |  |
| Cn1c(=O)[nH]c2cc(C(=O)NCc3ccc(Oc4ccc(F)c(F)c4)nc3)ccc21 [Example 37] | 0.31 µM |  |
| Cn1c(=O)[nH]c2cc(C(=O)NCc3ccc(Oc4ccc(Cl)c(F)c4)nc3)ccc21 [Example 38] | 0.06 µM |  |
| Cn1c(=O)[nH]c2cc(C(=O)NCc3ccc(Oc4c(F)cccc4F)nc3)ccc21 [Example 40] | 0.039 µM |  |
| Cn1c(=O)[nH]c2cc(C(=O)NCc3ccc(Oc4cc(F)ccc4F)nc3)ccc21 [Example 41] | 0.036 µM |  |
| Cn1c(=O)[nH]c2cc(C(=O)NCc3ccc(Oc4c(F)cc(F)cc4F)nc3)ccc21 [Example 42] | 0.027 µM |  |
| Cc1cc(CNC(=O)c2ccc3c(c2)[nH]c(=O)n3C)cnc1Oc1ccccc1 [Example 43] | 0.14 µM |  |
| Cn1c(=O)[nH]c2cc(C(=O)NCc3ccc(Oc4ccc5cn[nH]c5c4)nc3)ccc21 [Example 44] | 0.12 µM |  |
| Cc1cc(CNC(=O)c2ccc3c(c2)[nH]c(=O)n3C)cnc1Oc1ccc(F)cc1 [Example 45] | 0.13 µM |  |
| Cn1c(=O)[nH]c2cc(C(=O)NCc3ccc(Oc4ccc5[nH]ncc5c4)nc3)ccc21 [Example 46] | 0.027 µM |  |
| Cn1c(=O)[nH]c2cc(C(=O)NCc3ccc(OC4CCC(F)(F)CC4)nc3)ccc21 [Example 47] | 0.056 µM |  |
| Cn1c(=O)[nH]c2cc(C(=O)NCc3cnc(Oc4ccc(F)cc4)cn3)ccc21 [Example 49] | 0.95 µM |  |
| CC(NC(=O)c1ccc2c(c1)[nH]c(=O)n2C)c1ccc(Oc2ccc(F)c(F)c2)nc1 (stereo not shown) [Example 51] | 0.21 µM |  |

| Compound | IC50 (Table 98) | other results |
| --- | --- | --- |
| CC(NC(=O)c1ccc2c(c1)[nH]c(=O)n2C)c1ccc(Oc2ccc(Cl)cc2F)nc1 (stereo not shown) [Example 52] | 0.024 µM |  |
| CC(NC(=O)c1ccc2c(c1)[nH]c(=O)n2C)c1ccc(Oc2cccc(F)c2F)nc1 (stereo not shown) [Example 53] | 0.079 µM |  |
| C[C@H](NC(=O)c1ccc2c(c1)[nH]c(=O)n2C)c1ccc(Oc2ccc(Cl)cc2F)nc1 [Example 54] | 0.033 µM |  |
| C[C@H](NC(=O)c1ccc2c(c1)[nH]c(=O)n2C)c1ccc(Oc2cccc(F)c2F)nc1 [Example 55] | 0.037 µM |  |
| CN(c1ccc(F)cc1)c1ccc(CNC(=O)c2ccc3[nH]c(=O)[nH]c3c2)cn1 [Example 56] | 0.029 µM |  |
| CN(c1ccc(CNC(=O)c2ccc3c(c2)[nH]c(=O)n3C)cn1)C1CCOCC1 [Example 60] | 0.14 µM |  |
| Cc1ccc(N(C)c2ccc(CNC(=O)c3ccc4c(c3)[nH]c(=O)n4C)cn2)cn1 [Example 63] | 0.037 µM |  |
| Cc1ccc(CN(C)c2ccc(CNC(=O)c3ccc4c(c3)[nH]c(=O)n4C)cn2)nc1 [Example 79] | 0.21 µM |  |
| CN(Cc1ccncn1)c1ccc(CNC(=O)c2ccc3c(c2)[nH]c(=O)n3C)cn1 [Example 81] | 0.15 µM |  |
| CCN(CC)c1ccc(CNC(=O)c2ccc3c(c2)[nH]c(=O)n3C)cn1 [Example 85] | 0.15 µM |  |
| Cn1c(=O)[nH]c2cc(C(=O)NCc3ccc(N(C)[C@H]4C[C@H](C(F)(F)F)C4)nc3)ccc21 [Example 87] | 0.068 µM |  |
| C[C@H](NC(=O)c1ccc2c(c1)[nH]c(=O)n2C)c1ccc(N(C)c2ccccc2F)nc1 [Example 88] | 0.098 µM |  |
| CN(Cc1ccccc1)c1ncc(CNC(=O)c2ccc3c(c2)[nH]c(=O)n3C)s1 [Example 91] | 0.12 µM |  |
| CN(CC1CC(F)(F)C1)c1ncc(CNC(=O)c2ccc3c(c2)[nH]c(=O)n3C)s1 [Example 93] | 0.27 µM |  |
| CC(C)N(C)c1cnc(CNC(=O)c2ccc3c(c2)[nH]c(=O)n3C)cn1 [Example 94] | 0.12 µM |  |
| Cn1c(=O)[nH]c2cc(C(=O)NCc3cnc4c(c3)ncn4-c3ccccc3F)ccc21 [Example 101] | 3.3 µM |  |
| CC(c1ccc(CNC(=O)c2ccc3c(c2)[nH]c(=O)n3C)cn1)N1CCC(C(F)(F)F)C1 (stereo not shown) [Example 112, 1-Methyl-2-oxo-N-((6-(1-(3-(trifluoromethyl)pyrrolidin-1-yl)ethyl)pyridin-3-yl)methyl)-2,3-dihydro-1H-benzimidazole-5-carboxamide] |  | KIT % at single concentration (printed in KIT IC50 column) (@10 uM): 59%@10 uM |
| CC(C)N(C)c1ccc(C(NC(=O)c2ccc3c(c2)[nH]c(=O)n3C)c2ccccc2)cn1 (stereo not shown) [Example 113, N-((6-(Isopropyl(methyl)amino)pyridin-3-yl)(phenyl)methyl)-1-methyl-2-oxo-2,3-dihydr o-1H-benzimidazole-5-carboxamide] |  | IC50 (Table 99): 2 µM |
| COC(=O)C(NC(=O)c1ccc2c(c1)[nH]c(=O)n2C)c1ccc(N(C)C(C)C)nc1 (stereo not shown) [Example 114a, Methyl 2-(6-(isopropyl(methyl)amino)pyridin-3-yl)-2-(1-methyl-2-oxo-2,3-dihydro-1H-benzimidazole-5-carboxamido)acetate] |  | IC50 (Table 99): 0.108 µM |
| CC(C)N(C)c1ccc(C(CO)NC(=O)c2ccc3c(c2)[nH]c(=O)n3C)cn1 (stereo not shown) [Example 114b, N-(2-hydroxy-1-(6-(Isopropyl(methyl)amino)pyridin-3-yl)ethyl)-1-methyl-2-oxo-2,3-dih ydro-1H-benzimidazole-5-carboxamide] |  | IC50 (Table 99): 0.317 µM |
| CC(C)Oc1ccc(CNC(=O)c2ccc3c(c2)[nH]c(=O)n3C)cn1 [Example 117] |  | IC50 (Table 99): 0.274 µM |
| Cn1c(=O)[nH]c2cc(C(=O)NCc3ccc(OC4CC(F)(F)C4)nc3)ccc21 [Example 118] |  | IC50 (Table 99): 0.632 µM |
| CN(c1ccc(CNC(=O)c2ccc3c(c2)[nH]c(=O)n3C)cn1)C1CCC2(CC1)COC2 [Example 123] |  | IC50 (Table 99): 0.126 µM |
| Cn1c(=O)[nH]c2cc(C(=O)NCc3ccc(NC4CCC(F)(F)CC4)nc3)ccc21 [Example 132] |  | IC50 (Table 99): 0.131 µM |

Reference: US20260042747A1, “KIT INHIBITORS, COMPOUNDS, PHARMACEUTICAL COMPOSITIONS, AND METHODS OF USE THEREOF” (Alivexis, Inc., priority 2022, published 2026)
